{"source": "patent US20180369289A1", "about": "“CELL TRANSPLANTATION DEVICE” (THE REGENTS OF THE UNIVERSITY OF CALIFORNIA, priority 2015, published 2018)", "key": {"macrophages": {"test_system": "macrophages", "experiment": "Macrophage attachment to microcapsules cultured with macrophages", "type": "cell-based", "settings": "incorporated in 2.5% UPLVM microcapsules with porcine islet cells", "experimental": "Porcine islet cells were encapsulated to 2.5% UPLVM microcapsules using the methods described above. One set of microcapsules incorporated CXCL12/SLF-1 to investigate the locally immunosuppressive effects of this immunorepellant. Microcapsules were then cultured in the presence of macrophages."}, "[1]": {"experiment": "Oxygen release from POGS (dissolved oxygen in media, hypoxia chamber)", "type": "physicochemical", "experimental": "(§1) Islets were obtained from male Sprague Dawley Rats (300-350 g) and cultured in vitro overnight at 37° C., 5% CO2. Supplemented CMRL media (Gibco) incubated at 0% O2 overnight in a hypoxia chamber (XVivo, Biospherix) in order to allow media to deoxygenate. Dissolved oxygen levels were measured in the media using dissolved oxygen meter (Oakton D110).\nPhosphate-complexed calcium peroxide (PcCPO) was synthesized by mixing calcium peroxide (CPO) with phosphate-buffered saline at 10 mg/mL and incubating at 37° C. overnight. CP or PcCP was dissolved in a 1.5% UPLVM solution and alginate microcapsules were produced as described above. All oxygen concentration assays were performed in a controlled hypoxic chamber at 37° C. 5% CO2 0% ambient O2 to ensure that the data obtained was not confounded by changes in ambient O2 during the experiment.\n[…] No islets were used in this experiment. […] When a 1:1 mixture of culture media and PBS was used, unencapsulated CPO (“PGS/PBS”) caused a rapid rise to 20% dissolved oxy gen which was sustained for at least an hour before gradually falling to 10%."}, "islets [2]": {"test_system": "islets", "experiment": "Glucose-stimulated insulin release (GSIR) of islets cultured at 0% O2 with CPO", "type": "cell-based, Sprague Dawley Rats", "settings": "added to the culture media; p<0.05", "experimental": "as §1\n(§2) For all viability studies, islets were stained with the following probes to determine viability status based on positive staining: Calcein Blue: live; propidium iodide: dead; and YoPro-1; apoptotic. Islet function was evaluated by looking at glucose stimulated insulin response (GSIR). Islet stimulation index (insulin release at high glucose concentration/insulin release at low glucose concentrations) or SI was calculated after insulin release was quantified using an ELISA.\nIn order to be useful for diabetes treatment, the isolated islets must retain the ability to produce insulin, not just maintain viability. Thus, the insulin release characteristics of islets cultured at 0% O2 in the presence of CPO was investigated by measuring the glucose-stimulated insulin release (GSIR)."}, "islets [3]": {"test_system": "islets", "experiment": "Viability of isolated islets under hypoxia with CPO", "type": "cell-based, Sprague Dawley Rats", "settings": "5 mg/ml or 10 mg/ml in culture media or culture media/PBS mixture; p<0.01 relative to 0% O2 without POGS", "experimental": "as §1, §2\nAbout 60% and 70% of islets were alive and viable immediately after isolation and after the 24 hour culture at 20% O2, respectively. However, the proportion of live/viable islets dropped to less than 30% after 24 hour culture at 0% O2. Islets cultured for 24 hours at 0% O2 were rescued by 5 mg/ml or 10 mg/ml CPO (“POGS”) in culture media or in the culture media/PBS mixture (p<0.01 relative to 0% O2 without POGS)."}, "[4]": {"experiment": "PFC oxygen content and release in culture media", "type": "physicochemical", "experimental": "(§3) Islets from Sprague Dawley rats were isolated, cultured, and assessed as described above. Three concentrations of perfluorodecalin (“PFD”) were added to the culture media: 0.1 ml PFC/ml media (“low PFC”), 0.375 ml PFC/ml media (“medium PFC”), and 0.75 ml PFC/ml media (“high PFC”).\nA first experiment was performed under 20% and 0% oxygen culture conditions in the absence of islets to characterize the oxygen release rates of various PFC concentrations and under different PFC-oxygen charging conditions. […] The PFCs were charged for 15 minutes in 40% O2 prior to plating."}, "islets [5]": {"test_system": "islets", "experiment": "Effect of PFCs on islet viability in hypoxic culture", "type": "cell-based, Sprague Dawley rats", "settings": "for Apoptotic (%) / Dead (%) / Live (%): 0% O2, 24 hours", "experimental": "as §2, §3\nIn a second experiment, islets were plated under 0% or 20% oxygen conditions, as outlined above. Hypoxic islets were supplemented with low, medium, or high PFC levels, charged for 15 minutes in 40% O2 prior to plating. Islet viability was assessed as described above."}, "[6]": {"settings": "medium PFC 0.375 ml PFC/ml media"}}, "note": "Entries after “also recorded” stand apart in the source; their conditions may differ."}
{"compound": "CXCL12/SLF-1: immunorepellant incorporated into 2.5% UPLVM microcapsules", "values": [{"measurement": "Macrophage attachment to microcapsule", "setting": "macrophages", "value": "no macrophage attachment; also recorded: observed only for the microcapsules lacking CXCL12/SLF-1"}]}
{"compound": "[Ca+2].[O-][O-]", "note": "[CPO, calcium peroxide]", "values": [{"measurement": "Dissolved oxygen content", "setting": "[1]; unencapsulated CPO 10 mg/ml in 1:1 culture media and PBS, after gradual fall", "value": 10, "unit": "%"}, {"measurement": "Dissolved oxygen content", "setting": "[1]; unencapsulated CPO 10 mg/ml in 1:1 culture media and PBS, rapid rise, sustained at least an hour", "value": 20, "unit": "%"}, {"measurement": "Dissolved oxygen content", "setting": "[1]; unencapsulated CPO 10 mg/ml in culture media, hypoxia chamber, immediate and sustained", "value": "about 40%"}, {"measurement": "Effect on reduction of GSIR in islets cultured 24 hrs at 0% O2", "setting": "islets [2]", "value": "significantly reversed this reduction"}, {"measurement": "Viability of islets cultured 24 hours at 0% O2", "setting": "islets [3]", "value": "rescued"}]}
{"compound": "Phosphate-complexed calcium peroxide [PcCPO]", "values": [{"measurement": "Dissolved oxygen content versus uncomplexed CPO", "setting": "[1]; encapsulated, 5 mg/ml", "value": "higher dissolved oxygen content than uncomplexed CPO"}, {"measurement": "Effect on reduction of GSIR in islets cultured 24 hrs at 0% O2", "setting": "islets [2]", "value": "significantly reversed this reduction"}]}
{"compound": "FC1(F)C(F)(F)C(F)(F)C2(F)C(F)(F)C(F)(F)C(F)(F)C(F)(F)C2(F)C1(F)F", "note": "(centres unmarked) [PFC, perfluorodecalin]", "values": [{"measurement": "Time for oxygen content to fall from 40% to the ambient 20%", "setting": "[4]; charged 15 to 90 minutes in 40% O2, added to culture media at 20% O2", "value": "≤ 10", "unit": "min"}, {"measurement": "O2 release profile under hypoxic conditions", "setting": "[4]; charged 15 minutes in 40% O2", "value": "prolonged O2 release profile"}, {"measurement": "Apoptotic (%)", "setting": "islets [5]; high PFC 0.75 ml PFC/ml media", "value": 17.7, "unit": "%"}, {"measurement": "Dead (%)", "setting": "islets [5]; high PFC 0.75 ml PFC/ml media", "value": 39.9, "unit": "%"}, {"measurement": "Live (%)", "setting": "islets [5]; high PFC 0.75 ml PFC/ml media", "value": 42.3, "unit": "%"}, {"measurement": "Apoptotic (%)", "setting": "islets [5]; low PFC 0.1 ml PFC/ml media", "value": 8.73, "unit": "%"}, {"measurement": "Dead (%)", "setting": "islets [5]; low PFC 0.1 ml PFC/ml media", "value": 42.1, "unit": "%"}, {"measurement": "Live (%)", "setting": "islets [5]; low PFC 0.1 ml PFC/ml media", "value": 49.2, "unit": "%"}, {"measurement": "Apoptotic (%)", "setting": "islets [5]; [6]", "value": 0.355, "unit": "%"}, {"measurement": "Dead (%)", "setting": "islets [5]; [6]", "value": 69.1, "unit": "%"}, {"measurement": "Live (%)", "setting": "islets [5]; [6]", "value": 30.5, "unit": "%"}, {"measurement": "Islet viability at 24 hours under hypoxic conditions", "setting": "islets [5]; all PFC concentrations", "value": "significantly improved islet viability"}]}
